Earlier results as cited in article PMC4237557 (Diabetes, Obesity & Metabolism, 2014).

Columns and labels:
[1] = in vitro
[2] = test system: insulin-like growth factor 1 receptor (IGF-1R); conditions: in vitro

Substance	Glucose-lowering potency compared with parent glargine (M0)	Mitogenicity compared with endogenous human insulin [1]	Affinity for IGF-1R compared with human insulin [2]
21^A-Gly-human insulin [M1]	equal glucose-lowering potency	does not exhibit an increased affinity for IGF-1R or increased mitogenicity	lower affinity
21^A-Gly-des-30^B-Thr-human insulin [M2]	–	–	lower affinity
